Experimental findings from patent publication US9617286B2, “Fungicide N-[(trisubstitutedsilyl)methyl]-carboxamide derivatives” (BAYER INTELLECTUAL PROPERTY GMBH, priority 2011, dated 2017) are described below.

One series concerns Sphaerotheca fuliginea. Kind of series: In vivo preventive test on Sphaerotheca fuliginea (powdery mildew on cucurbits). The following applies: gherkin plants, preventive spray, 500 ppm of active ingredient, grading 12 days after contamination. The protocol: Gherkin plants (“Vert petit de Paris” variety), sown in starter cups on a 50/50 peat soil-pozzolana substrate and grown at 24° C., are treated at the Z11 cotyledon stage by spraying with the active ingredient prepared as described above. Plants, used as controls, are treated with the mixture of acetone/tween/DMSO/water not containing the active material. After 24 hours, the plants are contaminated by spraying the cotyledons with an aqueous suspension of Sphaerotheca fuliginea spores (100 000 spores per mL). The spores are collected from infected plants. The contaminated gherkin plants are incubated at about 20° C. and at 70-80% relative humidity. Grading (% of efficacy) is carried out 12 days after the contamination, in comparison with the control plants.

The subject of another series is Septoria tritici. Description: In vivo preventive test on Septoria tritici (wheat). The conditions noted are these: preventive spray, 500 ppm of active ingredient, grading 24 days after contamination. The protocol:
Wheat plants (“Scipion” variety), sown in starter cups on a 50/50 peat soil pozzolana substrate and grown at 22° C., are treated at the 1 leaf stage (10 cm height) by spraying with the active ingredient prepared as described above. Plants, used as controls, are treated with the mixture of acetone/tween/DMSO/water not containing the active material. After 24 hours, the plants are contaminated by spraying the leaves with an aqueous suspension of cryopreserved Septoria tritici spores (500 000 spores per mL). The contaminated wheat plants are incubated for 72 hours at 18° C. and at 100% relative humidity, and then for 21 days at 90% relative humidity. Grading (% of efficacy) is carried out 24 days after the contamination, in comparison with the control plants.

The subject of a further series is Alternaria brassicae. Kind of series: In vivo preventive test on Alternaria brassicae (leaf spot on radish). The following applies: preventive spray, 500 ppm of active ingredient, grading 6 days after contamination. Here is the method: Radish plants (“Pernod Clair” variety), sown in starter cups on a 50/50 peat soil pozzolana substrate and grown at 17° C., are treated at the cotyledon stage by spraying with the active ingredient prepared as described above. Plants, used as controls, are treated with the mixture of acetone/tween/DMSO/water not containing the active material. After 24 hours, the plants are contaminated by spraying the cotyledons with an aqueous suspension of Alternaria brassicae spores (50 000 spores per mL). The spores are collected from a 15-day-old culture. The contaminated radish plants are incubated at 20° C. and at 100% relative humidity. Grading (% of efficacy) is carried out 6 days after the contamination, in comparison with the control plants.

Series [1] is described as follows: log P by HPLC on reversed-phase column (C 18), EEC Directive 79/831 Annex V.A8. It is filed as physicochemical. The conditions noted are these: 40° C., 0.1% aqueous formic acid and acetonitrile, linear gradient 10% to 90% acetonitrile. Here is the method: In table 1, the log P values were determined in accordance with EEC Directive 79/831 Annex V.A8 by HPLC (High Performance Liquid Chromatography) on a reversed-phase column (C 18), using the method described below:
Temperature: 40° C.; Mobile phases: 0.1% aqueous formic acid and acetonitrile; linear gradient from 10% acetonitrile to 90% acetonitrile.
Calibration was carried out using unbranched alkan-2-ones (comprising 3 to 16 carbon atoms) with known log P values (determination of the log P values by the retention times using linear interpolation between two successive alkanones). lambda-max-values were determined using UV-spectra from 200 nm to 400 nm and the peak values of the chromatographic signals.

A further series has as its system Pyrenophora teres. Description: In vivo preventive test on Pyrenophora teres (barley). The following applies: preventive spray (DMF/alkylaryl polyglycol ether), 500 ppm of active ingredient, evaluated 7-9 days after inoculation. The protocol:
Solvent: 49 parts by weight of N,N-dimethylformamide Emulsifier: 1 part by weight of alkylaryl polyglycol ether To produce a suitable preparation of active compound, 1 part by weight of active compound is mixed with the stated amounts of solvent and emulsifier, and the concentrate is diluted with water to the desired concentration. To test for preventive activity, young plants are sprayed with the preparation of active compound at the stated rate of application. One day after this treatment, the plants are inoculated with an aqueous spore suspension of Pyrenophora teres. The plants remain for 48 hours in an incubation cabinet at 22° C. and a relative atmospheric humidity of 100%. Then the plants are placed in a greenhouse at a temperature of approximately 20° C. and a relative atmospheric humidity of approximately 80%.

In a further series the test system is Puccinia recondita. Description: In vivo preventive test on Puccinia recondita (brown rust on wheat). The following applies: preventive spray, 500 ppm of active ingredient, grading 12 days after contamination. The protocol: Wheat plants (“Scipion” variety), sown in starter cups on a 50/50 peat soil pozzolana substrate and grown at 22° C., are treated at the 1 leaf stage (10 cm height) by spraying with the active ingredient prepared as described above. Plants, used as controls, are treated with the mixture of acetone/tween/DMSO/water not containing the active material. After 24 hours, the plants are contaminated by spraying the leaves with an aqueous suspension of Puccinia recondita spores (100 000 spores per mL). The spores are collected from an infected plant and are suspended in water containing 2.5 mL/L of Tween 80 at 10%. The contaminated wheat plants are incubated for 24 hours at 20° C. and at 100% relative humidity, and then for 10 days at 20° C. and at 70-80% relative humidity. Grading (% of efficacy) is carried out 12 days after the contamination, in comparison with the control plants.

The subject of a further series is Alternaria solani. Description: In vivo preventive test on Alternaria solani (tomato). The following applies: preventive spray, 500 ppm of active ingredient, evaluated 7 days after inoculation. Here is the method: Solvent: 49 parts by weight of N,N-dimethylformamide Emulsifier: 1 part by weight of alkylaryl polyglycol ether To produce a suitable preparation of active compound, 1 part by weight of active compound is mixed with the stated amounts of solvent and emulsifier, and the concentrate is diluted with water to the desired concentration. To test for preventive activity, young plants are sprayed with the preparation of active compound at the stated rate of application. One day after this treatment, the plants are inoculated with an aqueous spore suspension of Alternaria solani. The plants remain for one day in an incubation cabinet at approximately 22° C. and a relative atmospheric humidity of 100%. Then the plants are placed in an incubation cabinet at approximately 20° C. and a relative atmospheric humidity of 96%.

Consider `C[Si](C)(CN(C(=O)c1cccnc1C(F)F)C1CC1)c1ccccc1` [Example 5], for which the Efficacy in the series with Sphaerotheca fuliginea is on record as 89%; in the series on Septoria tritici, 80%; in the series with Alternaria brassicae, 96%. Besides, the logP in series [1] is given as 3.44.

In the case of `C[Si](C)(CN(C(=O)c1cccnc1C(F)(F)F)C1CC1)c1ccccc1` [Example 8], the Efficacy in the series with Pyrenophora teres amounted to 100%; in the series on Septoria tritici it was 100%; in the series with Alternaria brassicae, 88%. In series [1], this molecule gave a logP of 3.89.

Take `Cc1ccccc1[Si](C)(C)CN(C(=O)c1nccnc1C(F)(F)F)C1CC1` [Example 10]: the Efficacy in the series on Sphaerotheca fuliginea is on record as 78%; in the series on Pyrenophora teres, 100%; in the series with Septoria tritici, 79%; in the series on Alternaria brassicae, 88%. This molecule returned a logP in series [1] of 4.41.

Consider `Cc1ccccc1[Si](C)(C)CN(C(=O)c1cccnc1C(F)(F)F)C1CC1` [Example 11], for which the Efficacy in the series on Sphaerotheca fuliginea was found to be 94%; in the series on Pyrenophora teres it was 97%; in the series with Puccinia recondita, 88%; in the series with Alternaria brassicae, 88%. In addition, the logP in series [1] worked out at 4.18.

For the molecule `Cc1ccccc1[Si](C)(C)CN(C(=O)c1cccnc1C(F)F)C1CC1` [Example 12], the Efficacy stood at 97% in the series with Pyrenophora teres, 79% with Septoria tritici and 88% in the series with Alternaria brassicae. In addition, the lipophilicity (logP) in series [1] is recorded as 3.73.

Take `C[Si](C)(CN(C(=O)c1cccnc1C(F)F)C1CC1)c1ccccc1F` [Example 16]: the Efficacy is 100% with Pyrenophora teres, 71% in the series on Septoria tritici and 95% with Alternaria brassicae. In series [1], this molecule had a logP of 3.51.

For `CC[Si](C)(CN(C(=O)c1cccnc1C(F)F)C1CC1)c1ccccc1Cl` (stereo not shown) [Example 36], the Efficacy worked out at 94% in the series with Sphaerotheca fuliginea, 90% in the series with Septoria tritici, 81% with Puccinia recondita and 90% in the series with Alternaria brassicae. In series [1], this molecule came in with a logP of 4.21.

For `C[Si](C)(CN(C(=O)c1cccnc1C(F)(F)F)C1CC1)c1ccc(F)cc1Cl` [Example 47], the results for the Efficacy in the series with Pyrenophora teres, in the series on Septoria tritici and in the series with Alternaria brassicae were 97%, 93% and 75%, respectively. In series [1], the logP was 4.41.

For `C[Si](C)(CN(C(=O)c1nccnc1C(F)(F)F)C1CC1)c1cc(F)ccc1Cl` [Example 49], the Efficacy in the series with Pyrenophora teres is 97%; in the series on Septoria tritici it was 100%; in the series on Puccinia recondita it was 88%; in the series on Alternaria brassicae, 75%. For the same molecule, the logP in series [1] was 4.59.

With `C[Si](C)(CN(C(=O)c1cccnc1Cl)C1CC1)c1cc(F)ccc1Cl` [Example 50], the Efficacy with Sphaerotheca fuliginea came to 98%; in the series on Pyrenophora teres it was 97%; with Puccinia recondita, 75%; in the series with Alternaria brassicae, 75%. In series [1], this molecule came in with a lipophilicity (logP) of 3.99.

As to `C[Si](C)(CN(C(=O)c1nccnc1C(F)(F)F)C1CC1)c1ccc(F)cc1Cl` [Example 52], the Efficacy in the series with Sphaerotheca fuliginea is 94%; in the series on Pyrenophora teres, 100%; in the series with Septoria tritici, 97%; in the series with Alternaria brassicae, 100%. In series [1], this molecule registered a logP of 4.67.

Consider `C[Si](C)(CN(C(=O)c1cccnc1C(F)F)C1CC1)c1ccccc1C(F)(F)F` [Example 56], for which the Efficacy is 83% in the series on Sphaerotheca fuliginea, 100% in the series on Pyrenophora teres, 100% with Septoria tritici and 88% in the series with Alternaria brassicae. Also, the logP in series [1] was 3.94.

Take `C[Si](C)(CNC(=O)c1cccnc1C(F)F)c1cc(Cl)cc(Cl)c1` [Example 63]: the Efficacy in the series on Sphaerotheca fuliginea turned out to be 71%; with Alternaria solani, 95%; with Pyrenophora teres, 95%; in the series with Septoria tritici, 96%; in the series on Puccinia recondita, 97%. This molecule also registered a logP in series [1] of 3.69.

Turning to `C[Si](C)(Cc1cc(Cl)cc(Cl)c1)CN(C(=O)c1cccnc1C(F)F)C1CC1` [Example 117], the results for the Efficacy in the series with Alternaria solani and in the series on Pyrenophora teres were 75% and 90%, respectively. This molecule registered a logP in series [1] of 4.77.

A word on the logP: it is a log measure of how a compound divides between an organic and an aqueous phase.
